{
  "source": "patent US9556217B2",
  "about": "“Amphiphilic compounds” (WISCONSIN ALUMNI RESEARCH FOUNDATION, priority 2012, dated 2017)",
  "key": {"[1]": {"target": "T1, cytidine-5′-monophosphate-sialic acid transporter (CMP-Sia) (Mus musculus, UniProt Q61420)", "T1 construct": "GFP-His (C, cleaved yes); made in house; host or cells: Saccharomyces cerevisiae", "T1 sequence (Q61420 1-336)": "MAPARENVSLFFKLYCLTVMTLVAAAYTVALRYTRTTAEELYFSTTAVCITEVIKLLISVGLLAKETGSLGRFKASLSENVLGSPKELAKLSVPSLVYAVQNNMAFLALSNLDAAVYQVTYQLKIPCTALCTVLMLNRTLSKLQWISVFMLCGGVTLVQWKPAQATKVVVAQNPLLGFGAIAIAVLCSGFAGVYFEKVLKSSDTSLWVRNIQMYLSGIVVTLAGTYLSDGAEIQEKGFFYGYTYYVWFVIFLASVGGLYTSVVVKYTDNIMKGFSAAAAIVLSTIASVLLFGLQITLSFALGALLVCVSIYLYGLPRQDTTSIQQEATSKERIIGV", "experiment": "CMP-Sia gel filtration integrity", "set-up": "species or system murine", "settings": "detergent at 0.042 wt %; 2 hours at 30° C.", "method": "The promising behavior manifested by GDN in terms of the stability of bR and the R. capsulatus superassembly prompted the examining this amphiphile with another membrane protein, the murine cytidine-5′-monophosphate-sialic acid transporter (CMP-Sia) (Newstead et al., Proc. Natl. Acad. Sci. USA 2007, 104, 13936-13941). The protein was initially extracted from S. cereviseae membranes with 1% DDM and isolated in buffer containing 0.03% DDM. The final purified protein (6 mg/mL) was diluted 1:100 into solutions containing DDM or GDN at 0.042 wt % (which corresponds to CMC+0.033 wt % for DDM and CMC+0.04 wt % for GDN). The DDM- and GDN-solubilized CMP-Sia were analyzed by gel filtration before and after incubation for 2 hours at 30° C. (FIG. 5a, b).\nProtein integrity was assessed using the procedure reported by Chae and coworkers (Nat. Methods 2010, 7, 1003-1008) using CMP-Sia instead of SQR.\nCMP-Sia and GlpG were expressed as fusion proteins with a C-terminal GFP-His tag in Saccharomyces cerevisiae and Escherichia coli respectively. All steps were carried out at 4° C. Membranes containing CMP-Sia and GlpG were resuspended in PBS, 10 mM imidazole pH 8.0, 150 mM NaCl, 10% glycerol and solubilized in 1% DDM for 1 hour with mild agitation. Supernatant containing DDM-solubilized protein was harvested after ultracentrifugation at 100,000 g for 45 min. […]"}, "[2]": {"target": "T2, β2AR WT (Homo sapiens, UniProt P07550)", "T2 construct": "made in house; host or cells: Sf9 insect cells (baculovirus); lysed cells and membranes extracted directly with amphiphile", "T2 sequence (P07550 whole entry, the tested form may be a part)": "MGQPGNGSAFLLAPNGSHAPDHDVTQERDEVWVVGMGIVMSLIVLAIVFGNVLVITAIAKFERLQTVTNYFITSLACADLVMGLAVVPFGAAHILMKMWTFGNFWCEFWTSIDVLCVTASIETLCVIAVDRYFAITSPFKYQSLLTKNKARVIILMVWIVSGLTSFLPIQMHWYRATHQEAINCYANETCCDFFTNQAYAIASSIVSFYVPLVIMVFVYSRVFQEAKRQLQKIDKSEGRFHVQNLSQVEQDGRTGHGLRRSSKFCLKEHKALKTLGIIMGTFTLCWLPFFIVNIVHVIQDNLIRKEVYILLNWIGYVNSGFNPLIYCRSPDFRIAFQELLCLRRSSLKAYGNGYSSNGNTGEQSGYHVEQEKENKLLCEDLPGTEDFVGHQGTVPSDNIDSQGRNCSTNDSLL", "experiment": "Extraction of β2AR WT from insect cell membranes", "settings": "1 or 2 wt %; western blotting", "method": "The favorable MelB extraction performance of GDN led to the examination of this amphiphile for extraction of other IMPs. […] DDM and GDN were used to extract a CMP-Sia fusion protein bearing green fluorescent protein (GFP) at the C-terminus, after expression in Saccharomyces cerevisiae; the amount of solubilized protein was estimated by total fluorescence. GDN (2 wt %), DDM (1 wt %) and OG (1 wt %) gave ˜70%, ˜80% and ˜50% extraction yields, respectively.\nThe procedure was performed according to the protocol reported by Chae and coworkers (Nat. Methods 2010, 7, 1003-1008).\nA gene encoding amino-terminally FLAG epitope tagged β2AR was expressed in Sf9 cells by baculovirus, with no ligand present during culture. Cells were infected at a density of 4×10^6 cells/mL and then cultured for 48 hours prior to harvesting by centrifugation. Cells were resuspended and lysed by osmotic shock with a low ionic strength buffer (20 mM Tris pH 7.5, 1 mM EDTA). The lysed cells were aliquoted 35 mg per aliquot, then frozen. For extraction tests, 300 μL of solubilization buffer (20 mM HEPES pH 7.5, 100 mM NaCl) containing each amphiphile was added to each aliquot, which was then homogenized by pipet followed by grinding with a glass dounce tissue homogenizer. After two-hour incubation at 4° C., samples were centrifuged at maximum speed in a tabletop microcentrifuge to pellet insoluble material. […]"}},
  "data": [
    {"compound": "CCCCCCCCCCCCO[C@@H]1O[C@H](CO)[C@@H](O[C@H]2O[C@H](CO)[C@@H](O)[C@H](O)[C@H]2O)[C@H](O)[C@H]1O", "note": "[DDM, dodecyl-β-D-maltoside, reference compound]", "values": [
      {"measurement": "CMP-Sia integrity after incubation (gel filtration)", "setting": "[1]", "value": "~50", "unit": "%"}
    ]},
    {"compound": "C[C@@H]1CC[C@@]2(OC1)O[C@H]1C[C@H]3[C@@H]4CC=C5C[C@@H](OCCC(CO[C@@H]6OC(CO)[C@@H](O[C@H]7OC(CO)[C@@H](O)C(O)C7O)C(O)C6O)CO[C@@H]6OC(CO)[C@@H](O[C@H]7OC(CO)[C@@H](O)C(O)C7O)C(O)C6O)CC[C@]5(C)[C@H]4CC[C@]3(C)[C@@H]1[C@@H]2C", "note": "(stereo partly drawn) [GDN, glyco-diosgenin]", "values": [
      {"measurement": "β2AR WT extraction compared with 1 wt % DDM", "setting": "[2]", "value": "more effective than was 1 wt % DDM"},
      {"measurement": "CMP-Sia integrity after incubation (gel filtration)", "setting": "[1]", "value": "> 90", "unit": "%"}
    ]}
  ]
}
